Reference: article PMC5224880, “Discovery and Molecular Basis of a Diverse Set of Polycomb Repressive Complex 2 Inhibitors Recognition by EED” (PLoS ONE, 2017)

Assays:
Format in all cases: biochemical
ESET = ESET (Homo sapiens, UniProt Q15047); assay: HMT panel selectivity: ESET
Description: (§1) Note: for EZH2, EZH2/EED/SUZ12/RBAP48/AEBP2 was used in the assay; for EZH1, EZH1/EED/SUZ12/RBAP48/AEBP2 was used in the assay; for MLL, MLL/WDR5/RBBP5/ASH2L/ was use in the assay. a, H3K27me0 peptide was used as substrate for both EZH2 and EZH1 activity; b, H3K27me1 peptide was used as substrate for both EZH2 and EZH1 activity. All HMT reactions were performed as described previously. ref: Proc Natl Acad Sci U S A. 2012 Dec 26;109(52):21360-5.

CARM1 = target: T1, CARM1 (Homo sapiens, UniProt Q86X55); assay: HMT panel selectivity: CARM1
T1 sequence (Q86X55 1-608): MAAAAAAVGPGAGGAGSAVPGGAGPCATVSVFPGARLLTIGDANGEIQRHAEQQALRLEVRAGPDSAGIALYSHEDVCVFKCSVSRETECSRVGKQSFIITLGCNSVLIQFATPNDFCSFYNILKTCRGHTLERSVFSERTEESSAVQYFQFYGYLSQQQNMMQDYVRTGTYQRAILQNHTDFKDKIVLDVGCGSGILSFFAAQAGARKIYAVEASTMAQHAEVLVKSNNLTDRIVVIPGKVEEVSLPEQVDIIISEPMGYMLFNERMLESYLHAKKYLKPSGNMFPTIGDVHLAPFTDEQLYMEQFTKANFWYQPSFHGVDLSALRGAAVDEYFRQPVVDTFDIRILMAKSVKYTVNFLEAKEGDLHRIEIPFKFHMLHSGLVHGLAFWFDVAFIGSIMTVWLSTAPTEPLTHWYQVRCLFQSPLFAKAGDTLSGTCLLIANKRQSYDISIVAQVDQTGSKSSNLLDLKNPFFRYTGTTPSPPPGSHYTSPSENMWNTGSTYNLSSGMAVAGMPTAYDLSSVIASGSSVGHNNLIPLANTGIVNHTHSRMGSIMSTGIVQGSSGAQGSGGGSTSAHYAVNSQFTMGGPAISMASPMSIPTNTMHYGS
Description: as §1

DNMT1 = DNMT1 (Homo sapiens, UniProt P26358); assay: HMT panel selectivity: DNMT1
Sequence of DNMT1 (P26358 whole entry, species assumed): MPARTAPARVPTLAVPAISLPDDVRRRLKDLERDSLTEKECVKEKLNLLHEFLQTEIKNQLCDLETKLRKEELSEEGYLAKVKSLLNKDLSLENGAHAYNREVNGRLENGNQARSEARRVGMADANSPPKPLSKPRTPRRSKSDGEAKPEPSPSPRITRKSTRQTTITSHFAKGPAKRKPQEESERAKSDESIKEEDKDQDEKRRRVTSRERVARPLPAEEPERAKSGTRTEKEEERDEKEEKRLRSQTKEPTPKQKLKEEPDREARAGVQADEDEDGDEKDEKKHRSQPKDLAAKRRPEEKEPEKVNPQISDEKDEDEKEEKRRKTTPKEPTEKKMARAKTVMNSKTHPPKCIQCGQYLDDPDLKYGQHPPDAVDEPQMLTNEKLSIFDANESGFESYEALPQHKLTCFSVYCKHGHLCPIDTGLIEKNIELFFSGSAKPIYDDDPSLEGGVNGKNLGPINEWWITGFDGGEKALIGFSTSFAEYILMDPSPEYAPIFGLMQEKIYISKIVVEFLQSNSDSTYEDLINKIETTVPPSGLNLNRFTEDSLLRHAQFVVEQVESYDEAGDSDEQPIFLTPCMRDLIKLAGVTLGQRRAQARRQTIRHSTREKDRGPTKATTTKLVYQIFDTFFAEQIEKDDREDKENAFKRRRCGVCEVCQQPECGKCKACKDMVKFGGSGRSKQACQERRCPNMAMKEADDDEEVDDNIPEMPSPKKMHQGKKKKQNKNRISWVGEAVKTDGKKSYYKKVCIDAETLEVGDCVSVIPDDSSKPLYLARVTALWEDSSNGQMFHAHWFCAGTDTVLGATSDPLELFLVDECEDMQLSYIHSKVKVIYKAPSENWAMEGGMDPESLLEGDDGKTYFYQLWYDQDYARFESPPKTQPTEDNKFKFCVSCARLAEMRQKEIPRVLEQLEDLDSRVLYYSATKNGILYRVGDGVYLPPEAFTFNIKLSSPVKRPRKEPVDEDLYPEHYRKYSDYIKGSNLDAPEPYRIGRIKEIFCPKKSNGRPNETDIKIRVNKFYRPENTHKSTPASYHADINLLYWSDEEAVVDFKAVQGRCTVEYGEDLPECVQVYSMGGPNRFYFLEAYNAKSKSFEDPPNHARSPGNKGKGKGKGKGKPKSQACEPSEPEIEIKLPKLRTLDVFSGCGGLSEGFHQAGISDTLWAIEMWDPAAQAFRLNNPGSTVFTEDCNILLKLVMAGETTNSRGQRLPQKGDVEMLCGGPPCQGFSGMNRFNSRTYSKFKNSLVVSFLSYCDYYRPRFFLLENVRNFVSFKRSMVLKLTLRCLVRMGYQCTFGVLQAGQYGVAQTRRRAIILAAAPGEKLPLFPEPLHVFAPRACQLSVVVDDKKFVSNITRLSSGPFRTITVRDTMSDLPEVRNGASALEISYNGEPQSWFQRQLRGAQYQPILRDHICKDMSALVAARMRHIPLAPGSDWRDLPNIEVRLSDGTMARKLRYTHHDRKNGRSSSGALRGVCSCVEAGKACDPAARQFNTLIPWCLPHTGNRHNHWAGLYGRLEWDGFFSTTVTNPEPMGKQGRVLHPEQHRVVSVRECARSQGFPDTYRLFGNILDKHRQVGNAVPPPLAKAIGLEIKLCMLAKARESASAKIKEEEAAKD
Description: as §1

SMYD3 = target: T2, SMYD3 (Homo sapiens, UniProt Q9H7B4); assay: HMT panel selectivity: SMYD3
T2 sequence (Q9H7B4 1-428): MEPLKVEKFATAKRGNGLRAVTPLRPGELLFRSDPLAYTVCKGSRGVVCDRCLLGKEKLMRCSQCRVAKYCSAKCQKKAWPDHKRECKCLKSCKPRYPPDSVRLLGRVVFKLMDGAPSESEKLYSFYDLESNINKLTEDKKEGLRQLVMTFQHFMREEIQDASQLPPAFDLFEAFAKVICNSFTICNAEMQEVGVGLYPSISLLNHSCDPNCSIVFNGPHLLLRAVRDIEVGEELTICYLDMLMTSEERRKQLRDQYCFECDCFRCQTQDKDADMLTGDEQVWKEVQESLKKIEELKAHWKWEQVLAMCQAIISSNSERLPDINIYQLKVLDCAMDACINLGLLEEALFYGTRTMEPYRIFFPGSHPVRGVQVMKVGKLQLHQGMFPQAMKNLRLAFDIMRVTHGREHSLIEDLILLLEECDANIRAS
Description: as §1

SetD8 = target: T3, SetD8 (Homo sapiens, UniProt Q9NQR1); assay: HMT panel selectivity: SetD8
T3 sequence (Q9NQR1 1-393): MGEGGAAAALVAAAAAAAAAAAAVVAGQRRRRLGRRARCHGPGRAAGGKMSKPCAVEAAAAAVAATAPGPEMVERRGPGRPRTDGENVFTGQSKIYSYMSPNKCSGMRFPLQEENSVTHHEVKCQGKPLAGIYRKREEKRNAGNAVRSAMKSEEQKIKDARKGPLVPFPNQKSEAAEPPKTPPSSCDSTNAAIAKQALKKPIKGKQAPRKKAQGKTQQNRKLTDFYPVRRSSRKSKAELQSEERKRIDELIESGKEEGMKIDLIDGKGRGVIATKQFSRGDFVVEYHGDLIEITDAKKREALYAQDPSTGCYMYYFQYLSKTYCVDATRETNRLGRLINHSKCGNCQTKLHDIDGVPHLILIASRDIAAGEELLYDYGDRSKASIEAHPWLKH
Description: as §1

NSD1 = NSD1 (Homo sapiens, UniProt Q96L73); assay: HMT panel selectivity: NSD1
Sequence of NSD1 (Q96L73 whole entry, species assumed): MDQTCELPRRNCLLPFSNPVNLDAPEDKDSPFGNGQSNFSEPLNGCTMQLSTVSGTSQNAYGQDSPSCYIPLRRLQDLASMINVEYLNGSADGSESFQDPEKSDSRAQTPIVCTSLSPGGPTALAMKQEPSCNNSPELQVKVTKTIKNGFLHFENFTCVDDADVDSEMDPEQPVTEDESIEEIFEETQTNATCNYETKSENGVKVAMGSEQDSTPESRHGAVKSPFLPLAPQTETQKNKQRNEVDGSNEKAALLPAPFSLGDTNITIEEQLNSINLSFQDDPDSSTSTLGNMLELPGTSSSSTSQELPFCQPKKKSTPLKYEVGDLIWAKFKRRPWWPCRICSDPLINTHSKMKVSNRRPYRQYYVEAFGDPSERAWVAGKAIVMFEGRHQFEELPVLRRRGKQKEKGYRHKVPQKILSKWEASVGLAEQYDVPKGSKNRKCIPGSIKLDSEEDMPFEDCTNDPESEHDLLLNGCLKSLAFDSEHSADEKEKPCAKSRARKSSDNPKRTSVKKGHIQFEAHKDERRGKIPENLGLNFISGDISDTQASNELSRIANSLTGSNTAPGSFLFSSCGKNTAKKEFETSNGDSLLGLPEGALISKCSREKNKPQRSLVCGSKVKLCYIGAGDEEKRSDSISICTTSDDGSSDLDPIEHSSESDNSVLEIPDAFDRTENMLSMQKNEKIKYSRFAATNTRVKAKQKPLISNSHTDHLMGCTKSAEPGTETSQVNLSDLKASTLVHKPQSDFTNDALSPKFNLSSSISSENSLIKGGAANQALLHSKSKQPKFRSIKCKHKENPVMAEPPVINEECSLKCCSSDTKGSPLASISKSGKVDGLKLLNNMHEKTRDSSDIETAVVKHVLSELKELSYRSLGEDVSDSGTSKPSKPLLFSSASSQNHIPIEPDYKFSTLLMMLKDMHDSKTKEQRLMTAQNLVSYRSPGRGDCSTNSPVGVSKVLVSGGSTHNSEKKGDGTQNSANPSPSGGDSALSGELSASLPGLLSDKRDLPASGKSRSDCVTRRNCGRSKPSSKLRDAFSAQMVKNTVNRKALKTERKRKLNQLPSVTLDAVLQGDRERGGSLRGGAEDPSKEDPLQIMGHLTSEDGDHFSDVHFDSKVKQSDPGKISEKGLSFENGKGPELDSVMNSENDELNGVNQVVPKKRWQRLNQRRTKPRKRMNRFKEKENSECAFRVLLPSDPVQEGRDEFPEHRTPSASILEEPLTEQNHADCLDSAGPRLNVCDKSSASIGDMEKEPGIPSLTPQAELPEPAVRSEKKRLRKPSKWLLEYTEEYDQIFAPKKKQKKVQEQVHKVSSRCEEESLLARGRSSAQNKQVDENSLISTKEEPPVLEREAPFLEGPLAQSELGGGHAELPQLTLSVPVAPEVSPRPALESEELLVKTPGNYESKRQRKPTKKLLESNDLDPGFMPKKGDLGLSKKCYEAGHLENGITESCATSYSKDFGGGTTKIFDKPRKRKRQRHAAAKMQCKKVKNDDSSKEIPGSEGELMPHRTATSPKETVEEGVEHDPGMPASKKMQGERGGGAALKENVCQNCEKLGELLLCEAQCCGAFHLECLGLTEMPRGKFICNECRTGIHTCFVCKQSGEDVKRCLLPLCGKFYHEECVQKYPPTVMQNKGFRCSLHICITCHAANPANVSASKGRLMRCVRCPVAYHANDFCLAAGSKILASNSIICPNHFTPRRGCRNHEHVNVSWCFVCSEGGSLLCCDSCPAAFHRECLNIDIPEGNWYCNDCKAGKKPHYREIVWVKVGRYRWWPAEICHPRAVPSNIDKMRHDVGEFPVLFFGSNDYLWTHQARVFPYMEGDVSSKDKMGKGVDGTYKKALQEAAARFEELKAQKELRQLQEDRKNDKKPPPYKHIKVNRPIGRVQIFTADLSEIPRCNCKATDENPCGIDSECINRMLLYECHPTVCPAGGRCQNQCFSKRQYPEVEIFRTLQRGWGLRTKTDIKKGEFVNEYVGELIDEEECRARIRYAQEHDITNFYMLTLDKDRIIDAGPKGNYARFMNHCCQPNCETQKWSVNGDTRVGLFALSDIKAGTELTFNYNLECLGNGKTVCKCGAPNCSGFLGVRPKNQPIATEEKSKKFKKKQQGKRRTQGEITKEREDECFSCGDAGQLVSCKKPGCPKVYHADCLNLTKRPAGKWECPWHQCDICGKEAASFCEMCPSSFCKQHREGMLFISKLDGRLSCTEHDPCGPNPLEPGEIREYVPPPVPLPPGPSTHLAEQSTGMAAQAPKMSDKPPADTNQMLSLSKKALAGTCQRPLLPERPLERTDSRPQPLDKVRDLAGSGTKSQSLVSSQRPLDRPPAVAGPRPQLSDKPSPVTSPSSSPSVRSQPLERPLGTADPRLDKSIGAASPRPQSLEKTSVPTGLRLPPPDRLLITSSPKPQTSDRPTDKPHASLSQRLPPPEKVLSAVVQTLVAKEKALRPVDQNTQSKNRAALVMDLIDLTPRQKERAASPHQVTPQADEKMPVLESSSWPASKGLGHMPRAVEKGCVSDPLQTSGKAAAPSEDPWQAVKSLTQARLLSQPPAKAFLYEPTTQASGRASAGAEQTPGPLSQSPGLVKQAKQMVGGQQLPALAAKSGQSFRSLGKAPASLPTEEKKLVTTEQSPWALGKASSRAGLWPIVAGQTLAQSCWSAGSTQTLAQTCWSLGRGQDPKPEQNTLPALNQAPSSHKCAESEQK
Description: as §1

Measured: IC50

N#Cc1c2c(c3nncn3c1NCc1ccco1)CN(Cc1ccccc1)CC2 [EED162]
> 100 µM: ESET | CARM1 | DNMT1 | SMYD3 | SetD8 | NSD1

COc1cccc(CC2CC3Cc4c(cccc4OC)CC3N(C)C2)c1 (stereo not drawn) [EED210]
> 100 µM: ESET | CARM1 | DNMT1 | SMYD3 | SetD8 | NSD1

COc1cc(-c2cc3n(c(=N)c2C#N)CCc2cc4c(cc2-3)OCO4)ccc1OC(C)C [EED396]
> 100 µM: ESET | CARM1 | DNMT1 | SMYD3 | SetD8 | NSD1

Cc1cc(C)n(-c2cc(N3CCc4ccccc4C3)ccc2[N+](=O)[O-])n1 [EED666]
> 100 µM: ESET | CARM1 | DNMT1 | SMYD3 | SetD8 | NSD1

COc1ccccc1CN1CC(c2cn(C)c3ccccc23)C(N(C)C)C1 (stereo not drawn) [EED709]
> 100 µM: ESET | CARM1 | DNMT1 | SMYD3 | SetD8 | NSD1
